Marks after values point to notes of the source that are not given here.
Experiments:
[1] = tested on: PGE2 biosynthesis; experiment: PGE2 biosynthesis in A549 pulmonary epithelial cells stimulated by mite dust allergen; type: cell-based, human; details: 10 μg/ml, added 60 minutes prior to mite dust allergen
Text: Mite dust allergen isolation—Dermatophagoides farinae is the American house dust mite. D. farinae were raised on a 1:1 ratio of Purina Laboratory Chow (Ralston Purina, Co, St. Louis, Mo.) and Fleischmann's granulated dry yeast (Standard Brands, Inc. New York, N.Y.) at room temperature and 75% humidity. Live mites were aspirated from the culture container as they migrated from the medium, killed by freezing, desiccated and stored at 0% humidity. The allergenic component of the mite dust was extracted with water at ambient temperature. Five-hundred mg of mite powder were added to 5 ml of water (1:10 w/v) in a 15 ml conical centrifuge tube (VWR, Rochester, N.Y.), shaken for one minute and allowed to stand overnight at ambient temperature. The next day, the aqueous phase was filtered using a 0.2 μm disposable syringe filter (Nalgene, Rochester, N.Y.). The filtrate was termed mite dust allergen and used to test for induction of PGE2 biosynthesis in A549 pulmonary epithelial cells.
Cell culture and treatment—The human airway epithelial cell line, A549 (American Type Culture Collection, Bethesda, Md.) was cultured and treated as previously described in Example 6. Mite allergen was added to the culture medium to achieve a final concentration of 1000 ng/ml. Eighteen hours later, the media were sampled for PGE2 determination.

[2] = tested on: adiponectin secretion; experiment: Adiponectin secretion in LPS/3T3-L1 adipocytes; type: cell-based, murine; details: LPS 100 ng/ml; for adiponectin secretion, in words: any of the doses tested
[3] = tested on: adiponectin secretion; experiment: Adiponectin secretion from TNFα-treated 3T3-L1 adipocytes; type: cell-based, murine; details: for maximum increase of adiponectin secretion from the TNFα control: 10 ng/ml TNFα
Protocol: 3T3-L1 cells were seeded at an initial density of 1×10^4 cells/cm^2 in 96-well plates. For two days, the cells were allowed grow to reach confluence. Following confluence, the cells were forced to differentiate into adipocytes by the addition of differentiation medium; this medium consisted of (1) 10% FBS/DMEM (high glucose); (2) 0.5 mM methylisobutylxanthine; (3) 0.5 μM dexamethasone and (4) 10 μg/ml insulin (MDI medium). From Day 3 through Day 5, the medium was changed to post-differentiation medium consisting of 10% FBS in DMEM. […] On Day 6, the supernatant medium was sampled for adiponectin determination.
(§1) Adiponectin Assay—The adiponectin secreted into the medium was quantified using the Mouse Adiponectin Quantikine® Immunoassay kit with no modifications (R&D Systems, Minneapolis, Minn.).
Statistical Calculations and Interpretation—All assays were preformed in duplicate. […] Differences among the doses and test agents were determined using the Student's t-test without correction for multiple comparisons; the nominal five percent probability of a type I error was selected.

[4] = Non-fasting serum glucose and insulin in db/db diabetic mice, three days; type: in vivo, mouse; details: three consecutive days by gavage
Protocol: The Model—Male, C57BLKS/J m^+/m^+ Lepr^db (db/db) mice were used to assess the potential of the test materials to reduce fasting serum glucose or insulin concentrations. This strain of mice is resistant to leptin by virtue of the absence of a functioning leptin receptor.
Testing Procedure—Test substances were administered daily by gavage in 0.2% Tween-80. Serum was collected from the retroorbital sinus before the initial dose and ninety minutes after the third and final dose. Non-fasting serum glucose was determined enzymatically by the mutarotase/glucose oxidase method and serum insulin was determined by a mouse specific ELISA.

[5] = tested on: adiponectin secretion; experiment: Adiponectin secretion from insulin-resistant 3T3-L1 adipocytes; type: cell-based, murine
Protocol: 3T3-L1 cells were seeded at an initial density of 1×10^4 cells/cm^2 in 96-well plates. For two days, the cells were allowed grow to reach confluence. Following confluence, the cells were forced to differentiate into adipocytes by the addition of differentiation medium; this medium consisted of (1) 10% FBS/DMEM (high glucose); (2) 0.5 mM methylisobutylxanthine; (3) 0.5 μM dexamethasone and (4) 10 μg/ml insulin (MDI medium). From Day 3 through Day 5, the medium was changed to post-differentiation medium consisting of 10 μg/ml insulin in 10% FBS/DMEM.
Briefly, on Day 6, cells were maintained in serum-free media containing 0.5% bovine serum albumin (BSA) for three hours and then treated with 1 μg insulin/ml plus solvent or insulin plus test material. […] Twenty-four hours later, the supernatant medium was sampled for adiponectin determination.
as §1
Statistical Calculations and Interpretation—All assays were preformed in duplicate. […] Differences between the doses were determined using the student's t-test without correction for multiple comparisons; the nominal five percent probability of a type I error was selected. […]

[6] = tested on: human PI3K-β, PI3K-γ, and PI3K-δ; experiment: Effect of hops components on PI3K activity (FIG. 3); type: biochemical; details: 50 μg/ml
Protocol: Additionally examined was an Acacia nilotica heartwood extract. All compounds were tested at 50 μg/ml. The results are presented graphically as FIG. 3.

[7] = tested on: IL-6; experiment: Serum IL-6 in collagen induced arthritis murine model; type: in vivo, mouse; details: 10 mg/kg

Beta acids
Percent PGE2 Inhibition [1]: 83%

CC(C)Cc1ccc(C(C)C(=O)O)cc1 (stereo not drawn) [ibuprofen]
Maximum adiponectin stimulation ([2]; 0.625 μg/ml): 22%

Cc1c(C)c2c(c(C)c1O)CCC(C)(COc1ccc(CC3SC(=O)NC3=O)cc1)O2 (stereo not drawn) [Troglitazone]
maximum increase of adiponectin secretion from the TNFα control [3]: 51%
Maximum adiponectin stimulation ([2]; 0.625 μg/ml): 15%

CN(C)C(=N)N=C(N)N [metformin]
serum glucose, in words [4]: decreased

CC(C)CCC1=C(O)C(C(=O)C(C)C)=C(O)C(CCC(C)C)(CCC(C)C)C1=O [Hexahydro-colupulone (HHCL)]
Adiponectin/IL-6 ([5]; 50.0 μg/ml, ratio of indexes (Table 21)): 0.60#

CCc1ccc(CCOc2ccc(CC3SC(=O)NC3=O)cc2)nc1 (stereo not drawn) [Pioglitazone]
Adiponectin Index (relative maximum) ([3]; 10 ng TNFα/ml, [Adiponectin]Test/[Adiponectin]TNFα control): 1.47
maximum increase of adiponectin secretion from the TNFα control [3]: 80%
Adiponectin Index Observed ([3]; 1.0 μg/ml, indexed to TNFα control (Table 26)): 1.80
Maximum adiponectin stimulation ([2]; […]): 12%

CC(=O)Oc1ccccc1C(=O)O [Aspirin]
adiponectin secretion, in words [2]: failed to induce adiponectin secretion

COc1ccc2c(c1)c(CC(=O)O)c(C)n2C(=O)c1ccc(Cl)cc1 [Indomethacin]
Maximum adiponectin stimulation ([2]; […]): 9%

CC(C)CCC1=C(O)C(C(=O)C(C)C)=C(O)C(CCC(C)C)(CCC(C)C)C1=O [hexahydrocolupulone]
concentration required for half maximal adiponectin secretion ([5]; Hofstee plot slope): 3.2 µg/mL

COc1cc(O)c(CC=C(C)C)c(O)c1C(=O)/C=C/c1ccc(O)cc1 [xanthohumol]
PI3K isoform effect, in words [6]: more inhibitory to PI3K-γ than to PI3K-β or PI3K-δ
serum glucose, in words [4]: reduction in serum glucose
serum insulin, in words [4]: no effect on insulin

O=C(O)c1ccccc1O [salicylic acid]
adiponectin secretion, in words [2]: failed to induce adiponectin secretion

C[C@]12C=CC(=O)C=C1CC[C@@H]1[C@@H]2[C@@H](O)C[C@@]2(C)[C@H]1CC[C@]2(O)C(=O)CO [prednisolone]
serum IL-6 levels, in words [7]: reached a statistical significance

From patent US20080031894A1, “Beta acid based protein kinase modulation cancer treatment” (Metaproteomics, LLC, priority 2006, published 2008)
